Format in all cases: functional
The test system of test [1] is Trichosporon beigelii. Nature of the test: Antifungal activity against Trichosporon beigelii 1188 after 24 hrs by broth microdilution method. Conditions: Trichosporon beigelii, 1188, 24 h. On the technique in general: Broth dilution looks for growth in wells or tubes with falling amounts of substance.
Test [2] has as its system Pichia kudriavzevii. Nature of the test: Antifungal activity against Candida krusei E28 after 48 hrs by broth microdilution method. Conditions: E28, 48 h.
The subject of test [3] is Candida albicans. Nature of the test: Antifungal activity against Candida albicans ATCC 44859 after 24 hrs by broth microdilution method. Conditions: ATCC 44859, 24 h.
For test [4], the system named is Candida tropicalis. Briefly: Antifungal activity against Candida tropicalis 156 after 48 hrs by broth microdilution method. The conditions noted are these: Candida tropicalis, 156, 48 h.
The subject of test [5] is Candida albicans. Nature of the test: Antifungal activity against Candida albicans ATCC 44859 after 48 hrs by broth microdilution method. Conditions: ATCC 44859, 48 h.
The test system of test [6] is Lichtheimia corymbifera. Briefly: Antifungal activity against Absidia corymbifera 272 after 24 hrs by broth microdilution method. The conditions noted are these: Lichtheimia corymbifera, 272, 24 h.
Test [7] deals with Candida tropicalis. Nature of the test: Antifungal activity against Candida tropicalis 156 after 24 hrs by broth microdilution method. Conditions: Candida tropicalis, 156, 24 h.
Test [8] concerns Aspergillus fumigatus. Nature of the test: Antifungal activity against Aspergillus fumigatus 231 after 48 hrs by broth microdilution method. The conditions noted are these: Aspergillus fumigatus, 231, 48 h.
Test [9] relates to Lichtheimia corymbifera. Nature of the test: Antifungal activity against Absidia corymbifera 272 after 48 hrs by broth microdilution method. The conditions noted are these: Lichtheimia corymbifera, 272, 48 h.
Test [10] concerns Nakaseomyces glabratus. Briefly: Antifungal activity against Candida glabrata 20/I after 48 hrs by broth microdilution method.
Test [11] relates to Pichia kudriavzevii. Briefly: Antifungal activity against Candida krusei E28 after 24 hrs by broth microdilution method. The conditions noted are these: E28, 24 h.
Test [12] has as its system Trichophyton mentagrophytes. Nature of the test: Antifungal activity against Trichophyton mentagrophytes after 24 hrs by broth microdilution method.
Test [13] relates to Trichosporon beigelii. Briefly: Antifungal activity against Trichosporon beigelii 1188 after 48 hrs by broth microdilution method. Conditions: Trichosporon beigelii, 1188, 48 h.
The subject of test [14] is Nakaseomyces glabratus. Nature of the test: Antifungal activity against Candida glabrata 20/I after 24 hrs by broth microdilution method.
Test [15] concerns Trichophyton mentagrophytes. Briefly: Antifungal activity against Trichophyton mentagrophytes after 48 hrs by broth microdilution method.
For test [16], the system named is Aspergillus fumigatus. Nature of the test: Antifungal activity against Aspergillus fumigatus 231 after 24 hrs by broth microdilution method. Conditions: Aspergillus fumigatus, 231, 24 h.

The results in this text go back to ChEMBL document CHEMBL1629494, “New amino acid esters of salicylanilides active against MDR-TB and other microbes” (Eur J Med Chem, 2010).

≈ marks a conversion by molar mass, not a printed value. Bounds are passed on as bounds.

Broadly, the MIC is the lowest concentration found to suppress growth. A low value points to greater potency. Consider `OC(Cn1cncn1)(Cn1cncn1)c1ccc(F)cc1F` [FLUCONAZOLE], for which the minimal inhibitory concentration (MIC) with Trichosporon beigelii [1] was 0.24 µM (≈ 0.0735 µg/mL); against Pichia kudriavzevii [2] it was 15.6 µM (≈ 4.78 µg/mL); in the test on Candida albicans [3] it was 0.06 µM (≈ 0.0184 µg/mL); with Candida tropicalis [4], more than 125 µM; with Candida albicans [5], 0.12 µM (≈ 0.0368 µg/mL); against Lichtheimia corymbifera [6], more than 125 µM. The minimal inhibitory concentration (MIC) in the test with Candida tropicalis [7] was 0.12 µM (≈ 0.0368 µg/mL); with Aspergillus fumigatus [8] it was more than 125 µM; against Lichtheimia corymbifera [9] it was more than 125 µM; against Nakaseomyces glabratus [10], 3.91 µM (≈ 1.2 µg/mL); against Pichia kudriavzevii [11], 3.91 µM (≈ 1.2 µg/mL); in [12], 1.95 µM (≈ 0.597 µg/mL). Besides, the MIC is 0.48 µM (≈ 0.147 µg/mL) in the test on Trichosporon beigelii [13], 0.98 µM (≈ 0.3 µg/mL) in the test with Nakaseomyces glabratus [14], 3.91 µM (≈ 1.2 µg/mL) in test [15] and more than 125 µM against Aspergillus fumigatus [16].
